# Measurements: ChEMBL document CHEMBL3991601, “The target landscape of clinical kinase drugs” (Science, 2017)
# The source made the active and inactive calls. Rule as the data show it, for most assays here: actives have a measured Kd and inactives only a lower limit.
# Columns and labels:
# [1] = target: Structural maintenance of chromosomes protein 2 (Homo sapiens, UniProt O95347)
# [2] = target: Ras-related protein Rab-6A (Homo sapiens, UniProt P20340)
# [3] = target: Serine/threonine-protein kinase N1 (Homo sapiens, UniProt Q16512)
# Chain of Serine/threonine-protein kinase N1 (Q16512 whole entry): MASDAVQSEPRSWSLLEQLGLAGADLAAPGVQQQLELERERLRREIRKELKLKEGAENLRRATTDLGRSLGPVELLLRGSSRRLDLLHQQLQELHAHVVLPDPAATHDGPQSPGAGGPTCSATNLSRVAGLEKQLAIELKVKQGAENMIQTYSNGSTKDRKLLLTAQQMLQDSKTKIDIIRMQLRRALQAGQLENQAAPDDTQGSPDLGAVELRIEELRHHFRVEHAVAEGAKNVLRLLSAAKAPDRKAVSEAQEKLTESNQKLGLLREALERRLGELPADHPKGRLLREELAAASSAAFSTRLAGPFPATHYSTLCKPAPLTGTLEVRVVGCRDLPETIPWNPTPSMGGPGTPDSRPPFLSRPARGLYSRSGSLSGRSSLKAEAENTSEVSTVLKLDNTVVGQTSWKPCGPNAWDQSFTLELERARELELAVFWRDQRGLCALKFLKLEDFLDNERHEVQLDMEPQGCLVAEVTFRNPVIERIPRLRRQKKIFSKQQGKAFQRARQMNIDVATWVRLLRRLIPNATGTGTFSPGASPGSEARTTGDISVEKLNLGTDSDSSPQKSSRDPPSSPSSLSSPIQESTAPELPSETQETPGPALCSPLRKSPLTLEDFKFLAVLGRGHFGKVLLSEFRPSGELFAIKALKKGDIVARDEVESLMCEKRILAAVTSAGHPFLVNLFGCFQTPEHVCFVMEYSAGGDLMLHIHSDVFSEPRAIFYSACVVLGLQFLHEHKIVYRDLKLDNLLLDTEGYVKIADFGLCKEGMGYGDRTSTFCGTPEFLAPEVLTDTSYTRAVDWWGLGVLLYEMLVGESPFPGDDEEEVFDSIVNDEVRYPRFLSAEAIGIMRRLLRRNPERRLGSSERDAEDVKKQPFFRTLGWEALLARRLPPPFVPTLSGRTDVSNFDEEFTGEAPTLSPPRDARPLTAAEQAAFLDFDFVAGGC
# [4] = target: Serine/threonine-protein kinase 26 (Homo sapiens, UniProt Q9P289)
# [5] = target: Protein-tyrosine kinase 2-beta (Homo sapiens, UniProt Q14289)
# Chain of Protein-tyrosine kinase 2-beta (Q14289 whole entry): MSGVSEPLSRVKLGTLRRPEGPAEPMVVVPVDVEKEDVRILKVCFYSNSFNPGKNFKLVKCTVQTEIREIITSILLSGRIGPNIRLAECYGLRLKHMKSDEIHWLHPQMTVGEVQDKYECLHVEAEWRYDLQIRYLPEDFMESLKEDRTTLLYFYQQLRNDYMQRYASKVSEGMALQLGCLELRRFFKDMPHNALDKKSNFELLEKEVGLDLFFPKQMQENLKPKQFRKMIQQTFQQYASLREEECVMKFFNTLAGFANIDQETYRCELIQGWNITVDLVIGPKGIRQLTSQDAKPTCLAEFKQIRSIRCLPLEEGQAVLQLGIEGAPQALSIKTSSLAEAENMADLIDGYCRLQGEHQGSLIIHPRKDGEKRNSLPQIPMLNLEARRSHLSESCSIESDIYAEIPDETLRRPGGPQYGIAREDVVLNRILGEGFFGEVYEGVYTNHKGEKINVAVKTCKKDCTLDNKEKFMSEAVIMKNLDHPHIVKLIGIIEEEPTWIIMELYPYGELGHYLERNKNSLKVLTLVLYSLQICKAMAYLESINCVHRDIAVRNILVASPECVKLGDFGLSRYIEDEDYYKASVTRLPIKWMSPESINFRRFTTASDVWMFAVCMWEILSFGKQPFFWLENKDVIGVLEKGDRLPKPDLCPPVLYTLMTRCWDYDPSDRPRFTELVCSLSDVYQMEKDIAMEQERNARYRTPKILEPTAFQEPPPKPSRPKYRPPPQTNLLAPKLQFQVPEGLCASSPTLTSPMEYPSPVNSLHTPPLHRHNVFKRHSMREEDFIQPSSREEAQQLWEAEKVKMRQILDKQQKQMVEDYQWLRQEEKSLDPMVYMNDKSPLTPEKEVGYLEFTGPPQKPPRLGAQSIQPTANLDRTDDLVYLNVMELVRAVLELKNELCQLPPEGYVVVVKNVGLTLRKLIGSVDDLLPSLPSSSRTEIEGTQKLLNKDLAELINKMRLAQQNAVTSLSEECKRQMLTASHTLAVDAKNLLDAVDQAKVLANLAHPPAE
# [6] = target: Cyclin-dependent kinase 13 (Homo sapiens, UniProt Q14004)
# Ephrin type-A receptor 2 = Ephrin type-A receptor 2 (Homo sapiens, UniProt P29317)
# Chain of Ephrin type-A receptor 2 (P29317 whole entry): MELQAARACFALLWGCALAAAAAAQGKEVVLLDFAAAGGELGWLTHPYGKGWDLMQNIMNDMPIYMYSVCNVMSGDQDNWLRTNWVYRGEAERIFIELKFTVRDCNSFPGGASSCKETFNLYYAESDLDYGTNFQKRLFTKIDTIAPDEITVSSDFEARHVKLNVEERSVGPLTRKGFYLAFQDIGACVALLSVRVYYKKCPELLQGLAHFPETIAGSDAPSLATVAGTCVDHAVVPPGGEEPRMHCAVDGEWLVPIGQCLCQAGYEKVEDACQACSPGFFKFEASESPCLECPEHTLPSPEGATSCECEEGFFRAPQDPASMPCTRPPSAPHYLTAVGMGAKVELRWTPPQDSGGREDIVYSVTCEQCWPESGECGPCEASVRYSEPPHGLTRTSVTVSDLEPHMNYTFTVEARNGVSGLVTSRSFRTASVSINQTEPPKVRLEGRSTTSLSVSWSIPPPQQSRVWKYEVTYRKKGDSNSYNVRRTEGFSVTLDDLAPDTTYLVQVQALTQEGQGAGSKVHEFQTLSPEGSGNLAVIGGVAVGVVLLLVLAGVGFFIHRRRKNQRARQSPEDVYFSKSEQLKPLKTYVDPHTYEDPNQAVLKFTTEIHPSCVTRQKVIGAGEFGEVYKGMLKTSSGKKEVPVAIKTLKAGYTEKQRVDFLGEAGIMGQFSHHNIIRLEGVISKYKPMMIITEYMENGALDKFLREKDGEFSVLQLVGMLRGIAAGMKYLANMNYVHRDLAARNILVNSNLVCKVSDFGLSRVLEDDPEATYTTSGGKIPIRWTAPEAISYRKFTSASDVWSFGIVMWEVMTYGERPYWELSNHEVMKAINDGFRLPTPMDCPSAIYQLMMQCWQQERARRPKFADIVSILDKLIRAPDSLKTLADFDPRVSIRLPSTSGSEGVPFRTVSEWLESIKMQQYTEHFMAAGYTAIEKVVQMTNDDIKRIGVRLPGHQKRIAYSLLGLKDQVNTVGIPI
# [7] = target: Interleukin-1 receptor-associated kinase 1 (Homo sapiens, UniProt P51617)
# [8] = target: T1, Interleukin-1 receptor-associated kinase 3 (Homo sapiens, UniProt Q9Y616)
# T1 sequence (Q9Y616 whole entry): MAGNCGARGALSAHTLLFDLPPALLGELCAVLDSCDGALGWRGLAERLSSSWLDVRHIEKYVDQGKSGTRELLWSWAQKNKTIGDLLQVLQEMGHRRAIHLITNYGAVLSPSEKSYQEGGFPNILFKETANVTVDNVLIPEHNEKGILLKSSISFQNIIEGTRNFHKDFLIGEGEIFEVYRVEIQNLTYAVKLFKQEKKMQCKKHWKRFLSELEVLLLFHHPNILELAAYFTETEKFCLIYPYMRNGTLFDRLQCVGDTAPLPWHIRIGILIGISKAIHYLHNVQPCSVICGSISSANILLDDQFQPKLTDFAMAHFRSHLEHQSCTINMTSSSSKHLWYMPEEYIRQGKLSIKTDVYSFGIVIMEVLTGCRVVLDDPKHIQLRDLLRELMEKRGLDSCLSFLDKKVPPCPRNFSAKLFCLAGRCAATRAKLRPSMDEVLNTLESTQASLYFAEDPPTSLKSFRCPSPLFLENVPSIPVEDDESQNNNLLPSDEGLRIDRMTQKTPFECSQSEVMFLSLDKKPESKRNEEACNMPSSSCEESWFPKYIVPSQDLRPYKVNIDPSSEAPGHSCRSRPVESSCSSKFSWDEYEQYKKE
# [9] = target: T2, Serine/threonine-protein kinase STK11 (Homo sapiens, UniProt Q15831)
# T2 sequence (Q15831 whole entry): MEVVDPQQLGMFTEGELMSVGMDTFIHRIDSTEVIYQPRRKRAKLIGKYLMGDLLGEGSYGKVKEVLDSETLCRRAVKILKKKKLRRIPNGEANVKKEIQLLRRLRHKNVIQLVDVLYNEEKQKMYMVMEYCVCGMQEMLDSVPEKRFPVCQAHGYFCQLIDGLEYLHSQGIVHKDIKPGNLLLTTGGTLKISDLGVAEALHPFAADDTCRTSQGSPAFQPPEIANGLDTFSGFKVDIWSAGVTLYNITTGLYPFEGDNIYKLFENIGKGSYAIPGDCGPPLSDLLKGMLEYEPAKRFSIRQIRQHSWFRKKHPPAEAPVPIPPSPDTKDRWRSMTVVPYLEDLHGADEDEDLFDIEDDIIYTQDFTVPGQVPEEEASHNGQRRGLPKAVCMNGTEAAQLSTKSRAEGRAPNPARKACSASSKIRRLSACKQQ
# Ephrin type-B receptor 4 = target: T3, Ephrin type-B receptor 4 (Homo sapiens, UniProt P54760)
# T3 sequence (P54760 whole entry): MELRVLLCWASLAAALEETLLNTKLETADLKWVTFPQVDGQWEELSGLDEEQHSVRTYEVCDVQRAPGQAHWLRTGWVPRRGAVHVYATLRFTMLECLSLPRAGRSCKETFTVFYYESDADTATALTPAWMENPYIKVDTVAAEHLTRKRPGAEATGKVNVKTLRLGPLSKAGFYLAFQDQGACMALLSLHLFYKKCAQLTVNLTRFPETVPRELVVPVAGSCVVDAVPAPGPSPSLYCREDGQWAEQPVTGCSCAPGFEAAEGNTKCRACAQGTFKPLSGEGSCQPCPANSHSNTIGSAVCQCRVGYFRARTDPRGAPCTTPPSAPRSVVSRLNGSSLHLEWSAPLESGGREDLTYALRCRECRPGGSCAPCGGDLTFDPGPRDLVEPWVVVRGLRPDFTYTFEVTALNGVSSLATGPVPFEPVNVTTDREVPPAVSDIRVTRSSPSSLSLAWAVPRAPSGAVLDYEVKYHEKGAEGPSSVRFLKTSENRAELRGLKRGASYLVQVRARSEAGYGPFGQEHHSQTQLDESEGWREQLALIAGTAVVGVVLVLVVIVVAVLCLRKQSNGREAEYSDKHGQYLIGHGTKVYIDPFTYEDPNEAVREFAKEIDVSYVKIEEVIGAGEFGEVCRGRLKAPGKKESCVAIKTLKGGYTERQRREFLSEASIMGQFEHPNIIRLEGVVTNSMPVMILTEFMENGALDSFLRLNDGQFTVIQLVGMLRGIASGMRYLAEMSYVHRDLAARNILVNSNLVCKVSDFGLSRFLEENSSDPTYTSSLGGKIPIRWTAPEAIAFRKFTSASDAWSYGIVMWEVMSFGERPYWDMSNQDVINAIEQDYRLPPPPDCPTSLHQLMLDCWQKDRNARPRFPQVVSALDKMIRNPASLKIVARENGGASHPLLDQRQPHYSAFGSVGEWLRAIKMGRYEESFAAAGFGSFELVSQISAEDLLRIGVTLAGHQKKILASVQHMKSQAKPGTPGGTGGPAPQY
# [10] = target: Tyrosine-protein kinase ABL2 (Homo sapiens, UniProt P42684)
# Chain of Tyrosine-protein kinase ABL2 (P42684 whole entry): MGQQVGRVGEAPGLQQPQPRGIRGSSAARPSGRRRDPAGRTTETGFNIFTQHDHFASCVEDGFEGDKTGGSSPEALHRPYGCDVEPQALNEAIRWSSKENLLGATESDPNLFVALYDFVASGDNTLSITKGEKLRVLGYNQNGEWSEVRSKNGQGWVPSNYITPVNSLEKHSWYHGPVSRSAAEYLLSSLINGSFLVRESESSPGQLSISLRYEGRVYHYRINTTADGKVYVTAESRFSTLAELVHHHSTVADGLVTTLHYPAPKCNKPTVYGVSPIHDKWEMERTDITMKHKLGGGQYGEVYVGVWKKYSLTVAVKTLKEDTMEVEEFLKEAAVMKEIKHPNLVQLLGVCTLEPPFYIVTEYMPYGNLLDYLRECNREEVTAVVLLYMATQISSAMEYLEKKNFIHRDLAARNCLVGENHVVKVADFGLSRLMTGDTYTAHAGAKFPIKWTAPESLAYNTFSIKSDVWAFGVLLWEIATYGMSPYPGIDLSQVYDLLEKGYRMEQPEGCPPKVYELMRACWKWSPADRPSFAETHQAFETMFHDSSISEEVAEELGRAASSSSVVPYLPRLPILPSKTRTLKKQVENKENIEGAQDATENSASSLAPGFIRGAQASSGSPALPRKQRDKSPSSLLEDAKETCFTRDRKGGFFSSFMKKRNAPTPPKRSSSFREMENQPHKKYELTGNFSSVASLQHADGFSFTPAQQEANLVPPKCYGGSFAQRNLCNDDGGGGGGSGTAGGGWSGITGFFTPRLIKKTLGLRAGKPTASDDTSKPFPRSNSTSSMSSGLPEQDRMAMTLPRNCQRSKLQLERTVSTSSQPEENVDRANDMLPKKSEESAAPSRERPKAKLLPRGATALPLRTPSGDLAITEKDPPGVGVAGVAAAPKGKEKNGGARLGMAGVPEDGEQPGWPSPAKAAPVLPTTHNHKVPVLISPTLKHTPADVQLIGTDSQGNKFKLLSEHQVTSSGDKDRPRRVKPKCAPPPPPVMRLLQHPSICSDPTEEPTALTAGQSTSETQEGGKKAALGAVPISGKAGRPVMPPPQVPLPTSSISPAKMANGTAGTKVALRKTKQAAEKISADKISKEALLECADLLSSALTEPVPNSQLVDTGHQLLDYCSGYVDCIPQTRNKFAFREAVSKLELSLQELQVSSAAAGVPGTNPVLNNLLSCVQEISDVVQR
# [11] = target: T4, Dual specificity mitogen-activated protein kinase kinase 6 (Homo sapiens, UniProt P52564)
# T4 sequence (P52564 whole entry): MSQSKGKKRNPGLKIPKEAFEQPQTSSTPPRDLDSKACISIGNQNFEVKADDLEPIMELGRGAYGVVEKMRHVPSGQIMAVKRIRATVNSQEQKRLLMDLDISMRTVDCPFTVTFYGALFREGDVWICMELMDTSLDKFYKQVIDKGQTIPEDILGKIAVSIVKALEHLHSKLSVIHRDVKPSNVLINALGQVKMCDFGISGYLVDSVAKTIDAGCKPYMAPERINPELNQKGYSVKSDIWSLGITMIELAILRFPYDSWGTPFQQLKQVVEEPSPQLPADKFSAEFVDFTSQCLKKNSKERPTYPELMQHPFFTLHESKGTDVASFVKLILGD
# [12] = target: Putative heat shock protein HSP 90-beta 2 (Homo sapiens, UniProt Q58FF8)
# Chain of Putative heat shock protein HSP 90-beta 2 (Q58FF8 whole entry): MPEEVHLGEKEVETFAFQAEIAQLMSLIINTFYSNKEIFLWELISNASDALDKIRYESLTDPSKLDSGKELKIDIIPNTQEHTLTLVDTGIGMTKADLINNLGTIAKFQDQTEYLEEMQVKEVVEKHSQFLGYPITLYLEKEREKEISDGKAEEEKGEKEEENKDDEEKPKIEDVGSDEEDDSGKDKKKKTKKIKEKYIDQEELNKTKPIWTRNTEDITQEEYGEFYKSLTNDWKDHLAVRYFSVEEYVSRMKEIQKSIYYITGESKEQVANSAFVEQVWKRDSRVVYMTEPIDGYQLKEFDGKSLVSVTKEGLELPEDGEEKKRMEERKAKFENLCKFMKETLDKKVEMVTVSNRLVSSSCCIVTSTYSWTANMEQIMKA
# Also: in the data inactive means no Kd found up to 30 µM.
# Chain of Ras-related protein Rab-6A (P20340 whole entry): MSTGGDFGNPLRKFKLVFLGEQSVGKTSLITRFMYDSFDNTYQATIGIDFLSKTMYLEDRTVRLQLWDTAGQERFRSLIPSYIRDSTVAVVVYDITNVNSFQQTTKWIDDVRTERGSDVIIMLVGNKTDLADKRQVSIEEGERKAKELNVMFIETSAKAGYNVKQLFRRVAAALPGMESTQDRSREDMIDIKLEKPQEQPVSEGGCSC
SMILES,Kd [1],Kd [2],Kd [3],Kd [4],Kd [5],Kd [6],Kd (Ephrin type-A receptor 2),Kd [7],Kd [8],Kd [9],Kd (Ephrin type-B receptor 4),Kd [10],Kd [11],Kd [12]
O=S(=O)(c1cccc2c(O)nccc12)N1CCCNCC1 [HYDROXYFASUDIL],> 30 µM (inactive),> 30 µM (inactive),2.92 µM (active),> 30 µM (inactive),> 30 µM (inactive),> 30 µM (inactive),> 30 µM (inactive),> 30 µM (inactive),> 30 µM (inactive),> 30 µM (inactive),> 30 µM (inactive),> 30 µM (inactive),> 30 µM (inactive),> 30 µM (inactive)
C#Cc1cccc(Nc2ncnc3cc4c(cc23)OCCOCCOCCO4)c1 [ICOTINIB],> 30 µM (inactive),> 30 µM (inactive),> 30 µM (inactive),> 30 µM (inactive),> 30 µM (inactive),> 30 µM (inactive),> 30 µM (inactive),> 30 µM (inactive),> 30 µM (inactive),> 30 µM (inactive),> 30 µM (inactive),> 30 µM (inactive),> 30 µM (inactive),> 30 µM (inactive)
COc1cc2ncnc3c2cc1OCCCCCN(C)Cc1ccc(Br)cc1N3 [JNJ-26483327],> 30 µM (inactive),> 30 µM (inactive),> 30 µM (inactive),> 30 µM (inactive),> 30 µM (inactive),> 30 µM (inactive),> 30 µM (inactive),> 30 µM (inactive),> 30 µM (inactive),> 30 µM (inactive),> 30 µM (inactive),> 30 µM (inactive),> 30 µM (inactive),> 30 µM (inactive)
Cc1ccc(C(=O)Nc2ccc(Oc3cc4cnn(C)c4cc3-c3cn[nH]c3)c(F)c2)c(=O)n1-c1ccc(F)cc1 [MERESTINIB],> 30 µM (inactive),> 30 µM (inactive),> 30 µM (inactive),> 30 µM (inactive),> 30 µM (inactive),> 30 µM (inactive),> 30 µM (inactive),> 30 µM (inactive),> 30 µM (inactive),> 30 µM (inactive),> 30 µM (inactive),> 30 µM (inactive),> 30 µM (inactive),> 30 µM (inactive)
O=C(NOC[C@H](O)CO)c1ccc(F)c(F)c1Nc1ccc(I)cc1F [MIRDAMETINIB],> 30 µM (inactive),> 30 µM (inactive),> 30 µM (inactive),> 30 µM (inactive),> 30 µM (inactive),> 30 µM (inactive),> 30 µM (inactive),> 30 µM (inactive),> 30 µM (inactive),> 30 µM (inactive),> 30 µM (inactive),> 30 µM (inactive),> 30 µM (inactive),> 30 µM (inactive)
COc1cccc2cc(-c3nc([C@H]4CC[C@H](C(=O)O)CC4)n4ncnc(N)c34)[nH]c12 [OSI-027],> 30 µM (inactive),> 30 µM (inactive),> 30 µM (inactive),> 30 µM (inactive),> 30 µM (inactive),> 30 µM (inactive),> 30 µM (inactive),> 30 µM (inactive),> 30 µM (inactive),> 30 µM (inactive),> 30 µM (inactive),> 30 µM (inactive),> 30 µM (inactive),> 30 µM (inactive)
O=C(Nc1ccc(OC(F)(F)F)cc1)c1sccc1NCc1ccnc2ccccc12 [OSI-930],> 30 µM (inactive),> 30 µM (inactive),> 30 µM (inactive),> 30 µM (inactive),> 30 µM (inactive),> 30 µM (inactive),> 30 µM (inactive),> 30 µM (inactive),> 30 µM (inactive),> 30 µM (inactive),> 30 µM (inactive),> 30 µM (inactive),> 30 µM (inactive),> 30 µM (inactive)
C=CC(=O)Nc1cc(Nc2nccc(-c3cn(C)c4ccccc34)n2)c(OC)cc1N(C)CCN(C)C [OSIMERTINIB],> 30 µM (inactive),> 30 µM (inactive),> 30 µM (inactive),> 30 µM (inactive),> 30 µM (inactive),> 30 µM (inactive),> 30 µM (inactive),> 30 µM (inactive),> 30 µM (inactive),> 30 µM (inactive),> 30 µM (inactive),> 30 µM (inactive),> 30 µM (inactive),> 30 µM (inactive)
FC(F)(F)c1ccc(CNc2ccc(Cc3c[nH]c4ncc(Cl)cc34)cn2)cn1 [PEXIDARTINIB],> 30 µM (inactive),> 30 µM (inactive),> 30 µM (inactive),> 30 µM (inactive),> 30 µM (inactive),> 30 µM (inactive),> 30 µM (inactive),> 30 µM (inactive),> 30 µM (inactive),> 30 µM (inactive),> 30 µM (inactive),> 30 µM (inactive),> 30 µM (inactive),> 30 µM (inactive)
O=C(NC[C@H](O)CO)c1ccncc1Nc1ccc(I)cc1F [PIMASERTIB],> 30 µM (inactive),> 30 µM (inactive),> 30 µM (inactive),> 30 µM (inactive),> 30 µM (inactive),> 30 µM (inactive),> 30 µM (inactive),> 30 µM (inactive),> 30 µM (inactive),> 30 µM (inactive),> 30 µM (inactive),> 30 µM (inactive),> 30 µM (inactive),> 30 µM (inactive)
